According to patent publication US11154519B2, “Inhibitors and their uses” (MEDICAL RESEARCH COUNCIL, priority 2015, dated 2021):

Key:
PP1 = target: T1, PP1 (Homo sapiens, UniProt P36873); experiment: SPR binding to PP1 alone; details: SPR steady-state, bio-PP1c surface
T1 construct: made in house; host or cells: Sf9 insect cells (baculovirus, pDW464)

[1] = Toxicity in mice (clinical signs, weight); type: in vivo; set-up: clinical signs: dose or concentration left out as unconfirmed; details: 2 weeks, oral
Method: For studying the effect of a compound of Example 1 on weight, C3H/B6 mice were gavaged orally once a day with compounds of Example 1 and mice weight was recorded daily for 2 weeks.
Mice were treated with Example 1 and monitored closely to detect any clinical signs. […] This establishes that PPP1R15B inhibition is not toxic. This was surprising and unanticipated as prior to this study one would have speculated that PPP1R15B inhibitors would be so deleterious that they would have no therapeutic potential.

PPP1R15A [2] = experiment: Assay 3: expression of PPP1R15A in cells; type: cell-based, human; details: late time points after addition, FIG. 2B
Method: For immunoblots, HeLa cells (80,000 cells/ml) were plated in 12-well plates 24 hours before each experiment. Immediately after the indicated treatments, cells were lysed in 75 μl Laemmli Buffer, boiled at 95° C. for 5 minutes and sonicated. Proteins were separated and analysed as described (Tsaytler et al., Science, 332, 91-94, 2011) with the following antibodies: phospho-elf2α [pS52] and PPP1R15A/GADD34 (10449-1-AP; ProteinTech Group, 1/1000 dilution) and ATF4 (Sc-200 Santa Cruz).
Cells and organisms usually have mechanisms to compensate for deficiencies. The inventors therefore considered whether cells might compensate for PPP1R15B inhibition by inducing PPP1R15A. It has been previously reported that PPP1R15A levels are increased in the liver of PPP1R15B knock-out mice (Harding et al., Proc. Natl. Acad. Sci. U.S.A., 106, 1832-1837, 2009). It is unknown whether this compensatory response is specific to the liver or if it can happen in cells or other tissues. Furthermore, prior to this study, it was unknown whether PPP1R15A induction can be observed upon pharmacological inhibition of PPP1R15B, as they were no selective inhibitors of PPP1R15B prior to this study.

Db/db animals = experiment: Blood glucose in obese db/db mice; type: in vivo; details: 1 mg/kg once a day, three weeks
Method: For treatment of a metabolic disorder, Db/db animals (n=5 per condition) were treated once a day with 1 mg/kg of compound of Example 1 for three weeks. Blood glucose levels were measured with a blood glucose meter (DSI) between 9 and 10 am. Data are mean+/−S.e.m.
It is known that metabolic diseases such as diabetes, obesity, fatty liver disease, and atherosclerosis are associated with pathological ER stress and it is believed that pharmacological modulators of the UPR may have therapeutic benefit. As there were no PPP1R15B inhibitors available prior to this study it was unclear whether PPP1R15B could be a therapeutic target in metabolic diseases. […] Having shown in one disease model that treatment with a compound of Example 1 is beneficial, it is evident that the compounds of the invention will be beneficial to other mammalian metabolic disorders such as diabetes, obesity, fatty liver disease, and atherosclerosis.

HeLa cells = experiment: Assay 4: protection of cells from tunicamycin stress (WST-8); type: cell-based, human; details: Tunicamycin 2.5 μg/ml, 0.2-5 μM compound, 3 days
Method: Cells were plated in 24-well plates at a density of 15,000 (HeLa) or 12,000 cells/ml (MEFs) 24 hours prior to treatment. ER stress was elicited by addition of fresh media containing 2.5 μg/ml tunicamycin (Sigma-Aldrich). Compounds of Example 1 were dissolved in DMSO and added as indicated. DMSO was used as a mock treatment. Cell viability was assessed by measuring the reduction of WST-8 [2-(2-methoxy-4-nitrophenyl)-3-(4-nitrophenyl)-5-(2,4-disulfophenyl)-2H-tetrazolium] into formazan using Cell viability Counting Kit-8 (Dojindo) according to the supplier's recommendation, […] after tunicamycin treatment.
Cells where stressed with Tunicamycin (2.5 μg/ml) in the presence of 0.2-5 μM of a compound of Example 1. Cell viability was measured 3 days after treatment.
Cytoprotection against ER stress can be measured by a suitable assay. In this instance, cytoprotection was measured in HeLa cells in which ER stress was elicited by the addition of media containing tunicamycin, a drug that blocks N-glycosylation, thereby preventing protein folding and inducing the unfolded protein response. Cell viability was then detected in the presence and absence of a compound of Example 1 after a set period of time, by measuring the reduction of WST-8 into formazan using the standard cell viability kit Cell Viability Counting Kit-8 from Dojindo. […]

PPP1R15A [3] = experiment: Assay 6: PPP1R15A induction in mouse brain (qPCR); type: in vivo; details: mice, dose-dependent
Method: RNA from brain was extracted in trizol (Life Technologies). RNA concentration was measured using a NANODROP1000 spectrophotometer (Thermo Fisher Scientific), and 1 μg was reverse transcribed to cDNA using a SuperScript reverse transcriptase (Life Technologies). Quantitative PCR with primers GAPDH (f): […], GAPDH (r): […], PPP1R15A (f): […]; and PPP1R15A (r): […] was performed using SYBR® Select Master Mix (Ref 4472908, applied biosystems) on a Corbett Rotor-Gene version 6000. Expression of each gene was normalized to the housekeeping gene GAPDH and expressed as fold change calculated using Paffl equation.
PPP1R15A induction was assessed by qPCR on total mRNA extracted from brains of mice treated with the indicated doses of compound of Example 1.
This explains why a selective PPP1R15B inhibitor is tolerated in mice: PPP1R15A induction dephosphorylates eIF2α, ensuring that the eIF2α phosphorylation which results from PPP1R15B inhibition by a compound of Example 1 is only transient. This is important because a persistent phosphorylation of eIF2α is detrimental. The induction of PPP1R15A in vivo by a PPP1R15B inhibitor is a pharmacodynamic parameter that can be used to evaluate the efficacy and potency of PPP1R15B inhibitors in mammals in pre-clinical or clinical studies.

mice = experiment: Side effects of Guanabenz: activity of mice after dosing; type: in vivo; details: 10 mg/kg oral gavage
Method: To assess whether of a compound of Example 1 had the side effects of Guanabenz, mice (n>3) were gavaged orally with 10 mg/kg of compound or Guanabenz. Their activity was monitored 30 minutes following dosing.
In humans, the adrenergic agonist activity of Guanabenz has side effects including drowsiness and coma at high doses (A. H. Hall, Ann Intern Med 102; 787-788; 1985). Due to of these side effects, Guanabenz is no longer used in human. It is anticipated that Guanabenz derivatives have the side effects of Guanabenz, associated with alpha-2 adrenergic activity.

T1 sequence (P36873 whole entry): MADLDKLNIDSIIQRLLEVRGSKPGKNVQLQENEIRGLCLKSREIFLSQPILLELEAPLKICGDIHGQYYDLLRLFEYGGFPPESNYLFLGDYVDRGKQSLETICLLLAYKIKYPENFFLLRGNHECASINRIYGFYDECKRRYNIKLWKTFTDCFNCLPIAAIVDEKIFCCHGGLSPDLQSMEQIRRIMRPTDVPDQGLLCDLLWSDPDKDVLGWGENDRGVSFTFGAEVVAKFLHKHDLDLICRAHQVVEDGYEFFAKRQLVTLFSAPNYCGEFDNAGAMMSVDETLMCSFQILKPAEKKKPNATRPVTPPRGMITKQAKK

Compound | Kd (PP1) | other results
[H]/N=C(\N)NN=Cc1ccc(Cl)cc1 [Compound 1, (E)-2-((4-chlorophenyl)methylene)hydrazine-1-carboximidamide] | 6.28 µM | 
N=C(N)N/N=C/c1cc(Cl)c(Cl)c(Cl)c1 [Compound 3, (E)-2-(3,4,5-trichlorobenzylidene)hydrazine-1-carboximidamide] | 10.3 µM | 
[H]/N=C(\N)NN=Cc1cc(Cl)c(F)c(Cl)c1 [Compound 5, (E)-2-(3,5-dichloro-4-fluorobenzylidene)hydrazine-1-carboximidamide] | 30.6 µM | 
[H]/N=C(\N)NN=Cc1cc(F)c(Cl)cc1Cl [Compound 7, (E)-2-(2,4-dichloro-5-fluorobenzylidene)hydrazine-1-carboximidamide] | 13 µM | 
[H]/N=C(\N)NN=Cc1ccc(Cl)c(F)c1 [Compound 8, (E)-2-(4-chloro-3-fluorobenzylidene)hydrazine-1-carboximidamide] | 10.6 ± 3.82 µM | 
[H]/N=C(\N)NN=Cc1cccc(Cl)c1Br [Compound 9, (E)-2-(2-bromo-3-chlorobenzylidene)hydrazine-1-carboximidamide] | 14.7 ± 1.4 µM | 
[H]/N=C(\N)NN=Cc1ccc(F)c(Cl)c1 [Compound 15, (E)-2-(3-chloro-4-fluorobenzylidene)hydrazine-1-carboximidamide] | 6.14 ± 0.28 µM | 
[H]/N=C(\N)NN=Cc1cccc(Cl)c1Cl [Compound 16, (E)-2-(2,3-dichlorobenzylidene)hydrazine-1-carboximidamide] |  | clinical signs [1]: undistinguishable from mice treated with placebo; weight gain ([1]; up to 10 mg/mg once a day): gained weight normally; expression of PPP1R15A in cells (PPP1R15A [2]): induce PPP1R15A; blood glucose (Db/db animals): reduced the pathological high blood glucose; protection of cells from stress (cell viability) (HeLa cells): protects cells from cytotoxic stress caused by tunicamycin; PPP1R15A induction (mRNA, brain) (PPP1R15A [3]): induced PPP1R15A; activity of mice 30 minutes following dosing (mice): as active as untreated mice
[H]/N=C(\N)NN=Cc1ccccc1F [Compound 17, (E)-2-(2-fluorobenzylidene)hydrazine-1-carboximidamide] | 12 ± 0.8 µM | 
N=C(N)N/N=C/c1cc(Cl)c(Cl)cc1F [Compound 18, (E)-2-(4,5-dichloro-2-fluorobenzylidene)hydrazine-1-carboximidamide] | 10.2 ± 0.14 µM | 
[H]/N=C(\N)NN=Cc1cccc(Cl)c1 [Compound 24, (E)-2-(3-chlorobenzylidene)hydrazine-1-carboximidamide] | 6.27 µM | 
[H]/N=C(\N)NN=Cc1cccc(Cl)c1F [Compound 30, (E)-2-(3-chloro-2-fluorobenzylidene)hydrazine-1-carboximidamide] | 12.8 ± 0.08 µM | 
[H]/N=C(\N)NN=Cc1c(Cl)ccc(Cl)c1Cl [Compound 31, (E)-2-(2,3,6-trichlorobenzylidene)hydrazine-1-carboximidamide] | 12.6 ± 1.4 µM | 
